Assay results published in patent US11976083B2, “Inhibitors of peptidylarginine deiminases” (Gilead Sciences, Inc., priority 2020, dated 2024).

Biological target: T1, human PAD4 (Homo sapiens, UniProt Q9UM07)
T1 construct: human PAD4 (NM_012387), A2-P663, was PCR amplified; His-SUMO (N, cleaved yes); made in house; host or cells: E. coli BL21(DE3)
Experiment: In vitro PAD4 BAEE biochemical assay
Conditions: BAEE substrate 3 mM, 5 nM PAD4, 2 mM calcium chloride; geometric mean of multiple experiments
Description: In Vitro PAD4 BAEE Biochemical Assay
The enzymatic activity of human PAD4 was monitored in a biochemical assay in the presence or absence of compounds using the small peptidyl arginine mimic BAEE (Na-Benzoyl-L-arginine ethyl ester hydrochloride) as substrate. PAD4 activity led to deimination of BAEE and release of ammonia. Levels of ammonia were monitored by using an amine coupling reaction and were indicative of PAD4 enzymatic activity.
One hundred nanoliters of test compounds dissolved in DMSO at various concentrations were dispensed into a 384-well black OptiPlate using a Labcyte Echo instrument. Ten microliters of a solution of recombinant PAD4 and calcium chloride diluted in PAD4 assay buffer (50 mM MOPS [3-(N-morpholino) propanesulfonic acid], pH 7.6; 50 mM sodium chloride; 0.05% Tween-20; 2 mM dithiothreitol) was added to the compound-containing plate and was incubated for 30 minutes at 25° C. Ten microliters of a solution of BAEE (Sigma-Aldrich #B4500) diluted in PAD4 assay buffer was then added to start the reaction. Final concentrations were 5 nM PAD4, 2 mM calcium chloride, and 3 mM BAEE. The reaction mixture was incubated at 25° C. for 2 hours and was stopped with the addition of 10 microliters of a solution of 75 mM EDTA (Ethylenediaminetetraacetic acid) in PAD4 assay buffer. Thirty microliters of detection solution (5 mM o-phthalaldehyde, 50 mM MOPS [3-(N-morpholino) propanesulfonic acid], pH 7.6; 50 mM sodium chloride; 0.05% Tween-20; 5 mM dithiothreitol) was then added and the reaction was incubated for 1 hour at 25° C. The level of fluorescent thiol-substituted isoindole resulting from the reaction of ammonia, o-phthalaldehyde, and dithiothreitol was measured on an Envision plate reader (PerkinElmer) with 405 nm excitation and 535 nm emission.
Data were normalized based on maximum inhibition (50 micromolar of the covalent PAD inhibitor BB-Cl-Amidine (Bicker, K. L.; Anguish, L.; Chumanevich, A. A.; Cameron, M. D.; Cui, X.; Witalison, E.; Subramanian, V.; Zhang, X.; Chumanevich, A. P.; Hofseth, L. J.; Coonrod, S. A.; Thompson, P. R. ACS Med. Chem. Lett. 2012, 3, 1081-1085). and no inhibition (DMSO) controls. Least squares curve fittings were performed using a four-parameter variable slope nonlinear regression model. IC50 is defined as the concentration of compound required to inhibit 50% of maximum activity. IC50 values from multiple experiments were averaged by geometric mean and the standard deviation was calculated.

T1 sequence (Q9UM07 2-663): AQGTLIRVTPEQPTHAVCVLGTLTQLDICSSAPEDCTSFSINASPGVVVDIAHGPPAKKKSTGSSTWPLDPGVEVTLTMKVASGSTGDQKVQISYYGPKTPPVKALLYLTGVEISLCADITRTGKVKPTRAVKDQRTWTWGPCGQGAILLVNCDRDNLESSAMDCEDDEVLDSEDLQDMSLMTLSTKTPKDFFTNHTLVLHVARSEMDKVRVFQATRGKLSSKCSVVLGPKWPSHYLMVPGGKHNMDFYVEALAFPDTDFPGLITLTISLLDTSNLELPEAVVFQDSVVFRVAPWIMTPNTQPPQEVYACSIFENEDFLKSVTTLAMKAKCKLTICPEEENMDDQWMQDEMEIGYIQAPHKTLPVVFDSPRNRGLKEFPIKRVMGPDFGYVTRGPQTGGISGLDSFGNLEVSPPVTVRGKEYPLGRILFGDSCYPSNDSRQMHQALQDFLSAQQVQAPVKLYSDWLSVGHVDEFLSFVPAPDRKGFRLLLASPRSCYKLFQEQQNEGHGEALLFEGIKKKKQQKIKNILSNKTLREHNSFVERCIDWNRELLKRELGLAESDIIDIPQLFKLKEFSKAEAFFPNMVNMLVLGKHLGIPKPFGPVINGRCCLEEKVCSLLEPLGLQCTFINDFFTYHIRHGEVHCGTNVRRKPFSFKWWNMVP

Going from `C[C@H]1NC(=O)[C@@H]2C[C@H]2CCCCCn2c(-c3nc4cc(C(=O)N[C@H]5CNCC[C@@H]5F)c(F)cc4n3[C@H]3C[C@H]3C(F)F)cc3ccc1nc32` (single isomer, unassigned) [Example 412, 1-[(1~{S},2~{R})-2-(difluoromethyl)cyclopropyl]-6-fluoro-~ {N}-[(3~{S),4~{S})-4-fluoro-3-piperidyl]-2-[(2~{R},5~{R},7~{R})-2-methyl-4-oxo-3,13,19-triazatetracyclo[11.5.2.0^{5,7}.0^{16,20}]icosa-1(19),14,16(20),17-tetraen-14-yl]benzimidazole-5-carboxamide] to `COc1cc(C(=O)N[C@H]2CNCC[C@@H]2F)cc2nc(-c3cc4ccc5nc4n3CCCCC[C@H]3CC[C@@H]3C(=O)N[C@@H]5C)n(C)c12` (single isomer, unassigned) [Example 486, ˜{N}-[(3˜{S},4˜{S})-4-fluoro-3-piperidyl]-7-methoxy-1-methyl-2-[(2˜{R},5˜{S},8˜{S})-2-methyl-4-oxo-3,14,20-triazatetracyclo[12.5.2.0^{5,8}.0^{17,21}]henicosa-1(20),15,17(21),18-tetraen-15-yl]benzimidazole-5-carboxamide], the IC50 rises from 42 nM to 110 nM (2.6-fold).

`C[C@H]1NC(=O)[C@@H]2C[C@H]2CCCC(F)(F)Cn2c(-c3nc4cc(C(=O)N5C[C@H](N)[C@@H]6CC[C@H]5C6)cc(F)c4n3[C@H]3C[C@@H]3C(F)F)cc3ccc1nc32` (single isomer, unassigned) [Example 453, (2~{R},5~{R},7~{R})-14-[5-[(1~{S},4~{R},5~{R})-4-amino-2-azabicyclo[3.2.1]octane-2-carbonyl]-1-[(1~{S},2~{S})-2-(difluoromethyl)cyclopropyl]-7-fluoro-benzimidazol-2-yl]-11,11-difluoro-2-methyl-3,13,19-triazatetracyclo[11.5.2.0^{5,7}.0^{16,20}] icosa-1(19),14,16(20),17-tetraen-4-one] and `COc1cc(C(=O)N2C[C@H](N)[C@@H]3CC[C@H]2C3)cc2nc(-c3cc4ccc5nc4n3CCCCCC[C@@](F)(c3ccccn3)C(=O)N[C@@H]5C)n(C3CC3)c12` (single isomer, unassigned) [Example 944, (8˜{R},11˜{R})-17-[5-[(1˜{S},4˜{R},5˜{R})-4-amino-2-azabicyclo[3.2.1]octane-2-carbonyl]-1-cyclopropyl-7-methoxy-benzimidazol-2-yl]-8-fluoro-11-methyl-8-(2-pyridyl)-1,10,19-triazatricyclo[10.5.2.0^{15,18}]nonadeca-12(19),13,15(18),16-tetraen-9-one] are within 1.5-fold of each other in IC50: 53 nM for the first, 64 nM for the second.

`COc1cc(C(=O)N[C@H]2CNCC[C@@H]2F)cc2nc(-c3cc4ccc5nc4n3CCCCC[C@@H]3CC[C@H]3C(=O)N[C@@H]5C)n(C)c12` (single isomer, unassigned) [Example 487, ˜{N}-[(3˜{S},4˜{S})-4-fluoro-3-piperidyl]-7-methoxy-1-methyl-2-[(2˜{R},5˜{R},8˜{R})-2-methyl-4-oxo-3,14,20-triazatetracyclo[12.5.2.0^{5,8}.0^{17,21}]henicosa-1(20),15,17(21),18-tetraen-15-yl]benzimidazole-5-carboxamide] and `COc1cc(C(=O)N2CC[C@@H](OC(F)F)[C@@H](N)C2)cc2nc(-c3cc4ccc5nc4n3CCCCC[C@@H]3C[C@H]3C(=O)N[C@@H]5C)n(C)c12` [Example 6, (2~{R),5~{R},7~{R})-14-[5-[(3~{S},4~{R})-3-amino-4-(difluoromethoxy)piperidine-1-carbonyl]-7-methoxy-1-methyl-benzimidazol-2-yl]-2-methyl-3,13,19-triazatetracyclo[11.5.2.0^{5,7}.0^{16,20}] icosa-1(19),14,16(20),17-tetraen-4-one] are within 1.5-fold of each other in IC50: 82 nM for the first, 105 nM for the second.

First: COc1cc(C(=O)N2C[C@H](N)[C@@H]3CC[C@H]2C3)cc2nc(-c3cc4ccc5nc4n3CCCCCC[C@](F)(c3ccccn3)C(=O)N[C@@H]5C)n(C3CC3)c12 (single isomer, unassigned) [Example 945, (8˜{S},11˜{R})-17-[5-[(1˜{S},4˜{R},5˜{R})-4-amino-2-azabicyclo[3.2.1]octane-2-carbonyl]-1-cyclopropyl-7-methoxy-benzimidazol-2-yl]-8-fluoro-11-methyl-8-(2-pyridyl)-1,10,19-triazatricyclo[10.5.2.0^{15,18}]nonadeca-12(19),13,15(18),16-tetraen-9-one]
Second: COc1cc(C(=O)N2[C@H]3CC[C@@H]2[C@H](N)C3)cc2nc(-c3cc4ccc5nc4n3CCCCCC[C@@](C)(C(F)(F)F)C(=O)N[C@@H]5C)n(C)c12 [Example 12, (8~{R},11~{R})-17-[5-[(1~{R},2~{R},4~{S})-2-amino-7-azabicyclo[2.2.1]heptane-7-carbonyl]-7-methoxy-1-methyl-benzimidazol-2-yl]-8,11-dimethyl-8-(trifluoromethyl)-1,10,19-triazatricyclo[10.5.2.0^{15,18}]nonadeca-12(19),13,15(18),16-tetraen-9-one]
The IC50 of the first is 3.5-fold lower: 34 nM for the first, 120 nM for the second.

First: COc1cc(C(=O)N2CCC[C@@H](N)C2)cc2nc(-c3cc4ccc5nc4n3CCCCCC[C@@](C)(C(F)(F)F)C(=O)N[C@@H]5C)n(C)c12 [Example 1, (8~{R},11~{R})-17-[5-[(3~{R})-3-aminopiperidine-1-carbonyl]-7-methoxy-1-methyl-benzimidazol-2-yl]-8,11-dimethyl-8-(trifluoromethyl)-1,10,19-triazatricyclo[10.5.2.0^{15,18}]nonadeca-12(19),13,15(18),16-tetraen-9-one]
Second: COc1cc(C(=O)N2CCC[C@@H](N)C2)cc2nc(-c3cc4ccc5nc4n3CCCCCC[C@](C)(C(F)(F)F)C(=O)N[C@@H]5C)n(C)c12 [Example 4, (8~{S},11~{R})-17-[5-[(3~{R})-3-aminopiperidine-1-carbonyl]-7-methoxy-1-methyl-benzimidazol-2-yl]-8,11-dimethyl-8-(trifluoromethyl)-1,10,19-triazatricyclo[10.5.2.0^{15,18}]nonadeca-12(19),13,15(18),16-tetraen-9-one]
The IC50 of the first is 1.5-fold higher: 104 nM for the first, 69 nM for the second. The second is the more potent here.

`COc1cc(C(=O)N2C[C@H](N)CC[C@@H]2C)cc2nc(-c3cc4ccc5nc4n3CCCCCCC(C)(C)C(=O)N[C@@H]5C)n(C)c12` [Example 5, (11~{R})-17-[5-[(2~{S},5~{R})-5-amino-2-methyl-piperidine-1-carbonyl]-7-methoxy-1-methyl-benzimidazol-2-yl]-8,8,11-trimethyl-1,10,19-triazatricyclo[10.5.2.0^{15,18}]nonadeca-12(19),13,15(18),16-tetraen-9-one] and `COc1cc(C(=O)N2CC[C@@H](OC(F)F)[C@@H](N)C2)cc2nc(-c3cc4ccc5nc4n3CCCCCc3nccnc3C(=O)N[C@@H]5C)n(C)c12` [Example 7, (2~{R})-17-[5-[(3~{S},4~{R})-3-amino-4-(difluoromethoxy)piperidine-1-carbonyl]-7-methoxy-1-methyl-benzimidazol-2-yl]-2-methyl-3,6,9,16,22-pentazatetracyclo[14.5.2.0^{5,10}.0^{19, 23}]tricosa-1(22),5(10),6,8,17,19(23),20-heptaen-4-one] are within 1.5-fold of each other in IC50: 76 nM for the first, 101 nM for the second.

`COc1cc(C(=O)N2[C@H]3CC[C@@H]2[C@H](N)C3)cc2nc(-c3cc4ccc5nc4n3C[C@H]3CC[C@H]3COCCC(=O)N[C@@H]5C)c(C)n12` [Example 8, (3~{S},6~{R},13~{R})-19-[7-[(1~{R},2~{R},4~{S})-2-amino-7-azabicyclo[2.2.1]heptane-7-carbonyl]-5-methoxy-3-methyl-imidazo[1,2-a]pyridin-2-yl]-13-methyl-8-oxa-1,12,21-triazatetracyclo[12.5.2.0^{3,6}.0^{17,20}] henicosa-14(21),15,17(20),18-tetraen-11-one] and `COc1cc(C(=O)N2[C@H]3CC[C@@H]2[C@H](N)C3)cc2nc(-c3cc4ccc5nc4n3C[C@@H]3CC[C@@H]3COCCC(=O)N[C@@H]5C)c(C)n12` [Example 9, (3~{R},6~{S},13~{R})-19-[7-[(1~{R},2~{R},4~{S})-2-amino-7-azabicyclo[2.2.1]heptane-7-carbonyl]-5-methoxy-3-methyl-imidazo[1,2-a]pyridin-2-yl]-13-methyl-8-oxa-1,12,21-triazatetracyclo[12.5.2.0^{3,6}.0^{17,20}] henicosa-14(21),15,17(20),18-tetraen-11-one] are within 1.5-fold of each other in IC50: 71 nM for the first, 53 nM for the second.
